Measurements taken from ChEMBL document CHEMBL1671662, “In vitro activities of telavancin and six comparator agents against anaerobic bacterial isolates” (2009).

Tests used:
Format in all cases: functional
Clostridium bolteae = test: Antibacterial activity against Clostridium bolteae by CLSI M11-A6 agar dilution method; details: Enterocloster bolteae
[1] = tested on: Enterocloster clostridioformis; test: Antibacterial activity against Clostridium clostridioforme by CLSI M11-A6 agar dilution method
[Clostridium] innocuum = Antibacterial activity against Clostridium innocuum by CLSI M11-A6 agar dilution method
Thomasclavelia ramosa = test: Antibacterial activity against Clostridium ramosum by CLSI M11-A6 agar dilution method
Clostridium subterminale = test: Antibacterial activity against Clostridium subterminale by CLSI M11-A6 agar dilution method
Clostridium bartlettii = test: Antibacterial activity against Clostridium bartlettii by CLSI M11-A6 agar dilution method; details: Intestinibacter bartlettii
Clostridium beijerinckii = test: Antibacterial activity against Clostridium beijerinckii by CLSI M11-A6 agar dilution method
[2] = tested on: Paraclostridium bifermentans; test: Antibacterial activity against Clostridium bifermentans by CLSI M11-A6 agar dilution method
Clostridium disporicum = test: Antibacterial activity against Clostridium disporicum by CLSI M11-A6 agar dilution method
Clostridium glycolicum = test: Antibacterial activity against Clostridium glycolicum by CLSI M11-A6 agar dilution method; details: Terrisporobacter glycolicus
Clostridium = test: Antibacterial activity against Clostridium hypermegas by CLSI M11-A6 agar dilution method
[3] = tested on: Clostridium paraputrificum; test: Antibacterial activity against Clostridium paraputrificum by CLSI M11-A6 agar dilution method
[4] = tested on: Paeniclostridium sordellii; test: Antibacterial activity against Clostridium sordellii by CLSI M11-A6 agar dilution method; details: Paraclostridium sordellii
[5] = tested on: Clostridium sporosphaeroides; test: Antibacterial activity against Clostridium sporosphaeroides by CLSI M11-A6 agar dilution method; details: Faecalispora sporosphaeroides
Actinomyces naeslundii = test: Antibacterial activity against Actinomyces naeslundii by CLSI M11-A6 agar dilution method
Bifidobacterium bifidum = test: Antibacterial activity against Bifidobacterium bifidum by CLSI M11-A6 agar dilution method
Bifidobacterium dentium = test: Antibacterial activity against Bifidobacterium dentium by CLSI M11-A6 agar dilution method
[6] = tested on: Bifidobacterium pseudolongum; test: Antibacterial activity against Bifidobacterium pseudolongum by CLSI M11-A6 agar dilution method
Holdemania filiformis = test: Antibacterial activity against Holdemania filiformis by CLSI M11-A6 agar dilution method
Ruminococcus gnavus = test: Antibacterial activity against Ruminococcus gnavus by CLSI M11-A6 agar dilution method; details: Mediterraneibacter gnavus
Ruminococcus albus = test: Antibacterial activity against Ruminococcus albus by CLSI M11-A6 agar dilution method; details: Hominimerdicola alba
Blautia luti = test: Antibacterial activity against Ruminococcus luti by CLSI M11-A6 agar dilution method
Ruminococcus lactaris = test: Antibacterial activity against Ruminococcus lactaris by CLSI M11-A6 agar dilution method
Ruminococcus torques = test: Antibacterial activity against Ruminococcus torques by CLSI M11-A6 agar dilution method; details: Mediterraneibacter torques
Ruminococcus sp. = test: Antibacterial activity against Ruminococcus sp. by CLSI M11-A6 agar dilution method
Anaerococcus prevotii = test: Antibacterial activity against Anaerococcus prevotii by CLSI M11-A6 agar dilution method
Parvimonas micra = test: Antibacterial activity against Peptostreptococcus micros by CLSI M11-A6 agar dilution method
Streptococcus anginosus = test: Antibacterial activity against Streptococcus anginosus by CLSI M11-A6 agar dilution method
[7] = tested on: Parabacteroides distasonis; test: Antibacterial activity against Parabacteroides distasonis by CLSI M11-A6 agar dilution method
[8] = tested on: Bacteroides thetaiotaomicron; test: Antibacterial activity against Bacteroides thetaiotaomicron by CLSI M11-A6 agar dilution method
Phocaeicola vulgatus = test: Antibacterial activity against Bacteroides vulgatus by CLSI M11-A6 agar dilution method
Fusobacterium mortiferum = test: Antibacterial activity against Fusobacterium mortiferum by CLSI M11-A6 agar dilution method
Prevotella bivia = test: Antibacterial activity against Prevotella bivia by CLSI M11-A6 agar dilution method
Prevotella corporis = test: Antibacterial activity against Prevotella corporis by CLSI M11-A6 agar dilution method
Prevotella disiens = test: Antibacterial activity against Prevotella P disiens by CLSI M11-A6 agar dilution method
Prevotella intermedia = test: Antibacterial activity against Prevotella P intermedia by CLSI M11-A6 agar dilution method
Prevotella nigrescens = test: Antibacterial activity against Prevotella nigrescens by CLSI M11-A6 agar dilution method
Hoylesella loescheii = test: Antibacterial activity against Prevotella loescheii by CLSI M11-A6 agar dilution method
Prevotella oris = test: Antibacterial activity against Prevotella oris by CLSI M11-A6 agar dilution method; details: Segatella oris

CCCCCCCCCCNCCN[C@@]1(C)C[C@H](O[C@H]2[C@H](Oc3c4cc5cc3Oc3ccc(cc3Cl)[C@@H](O)[C@@H](NC(=O)[C@@H](CC(C)C)NC)C(=O)N[C@@H](CC(N)=O)C(=O)N[C@H]5C(=O)N[C@H]3C(=O)N[C@H](C(=O)N[C@H](C(=O)O)c5cc(O)c(CNCP(=O)(O)O)c(O)c5-c5cc3ccc5O)[C@H](O)c3ccc(c(Cl)c3)O4)O[C@H](CO)[C@@H](O)[C@@H]2O)O[C@@H](C)[C@H]1O [TELAVANCIN]
8 µg/mL: MIC90 (Clostridium bolteae) | MIC90 [1] | MIC50 (Prevotella bivia) | MIC50 (Prevotella corporis) | MIC50 (Prevotella disiens) | MIC50 (Prevotella intermedia) | MIC50 (Prevotella nigrescens) | MIC50 (Hoylesella loescheii) | MIC50 (Prevotella oris)
≤ 0.12 µg/mL: MIC (Clostridium subterminale) | MIC50 (Clostridium subterminale) | MIC90 (Clostridium subterminale) | MIC50 (Clostridium bartlettii) | MIC50 (Clostridium beijerinckii) | MIC50 [2] | MIC50 (Clostridium disporicum) | MIC50 (Clostridium glycolicum) | MIC50 (Clostridium) | MIC50 [3] | MIC50 [4] | MIC50 [5] | MIC50 (Actinomyces naeslundii) | MIC50 (Bifidobacterium bifidum) | MIC50 (Bifidobacterium dentium) | MIC50 [6] | MIC50 (Holdemania filiformis) | MIC (Ruminococcus gnavus) | MIC50 (Ruminococcus gnavus) | MIC90 (Ruminococcus gnavus) | MIC50 (Ruminococcus albus) | MIC90 (Ruminococcus albus) | MIC50 (Blautia luti) | MIC90 (Blautia luti) | MIC50 (Ruminococcus lactaris) | MIC90 (Ruminococcus lactaris) | MIC50 (Ruminococcus torques) | MIC90 (Ruminococcus torques) | MIC50 (Ruminococcus sp.) | MIC50 (Anaerococcus prevotii) | MIC50 (Parvimonas micra) | MIC50 (Streptococcus anginosus) | MIC90 (Streptococcus anginosus)
0.5 µg/mL: MIC90 (Actinomyces naeslundii) | MIC90 (Bifidobacterium bifidum) | MIC90 (Bifidobacterium dentium) | MIC90 [6] | MIC90 (Holdemania filiformis)
0.25 µg/mL: MIC (Thomasclavelia ramosa) | MIC50 (Thomasclavelia ramosa) | MIC90 (Thomasclavelia ramosa) | MIC90 (Clostridium bartlettii) | MIC90 (Clostridium beijerinckii) | MIC90 [2] | MIC90 (Clostridium disporicum) | MIC90 (Clostridium glycolicum) | MIC90 (Clostridium) | MIC90 [3] | MIC90 [4] | MIC90 [5] | MIC90 (Ruminococcus sp.) | MIC90 (Anaerococcus prevotii) | MIC90 (Parvimonas micra)
> 64 µg/mL: MIC [7] | MIC50 [7] | MIC90 [7] | MIC50 [8] | MIC90 [8] | MIC (Phocaeicola vulgatus) | MIC50 (Phocaeicola vulgatus) | MIC90 (Phocaeicola vulgatus) | MIC50 (Fusobacterium mortiferum) | MIC90 (Fusobacterium mortiferum)
2 µg/mL: MIC50 ([Clostridium] innocuum) | MIC90 ([Clostridium] innocuum)
4 µg/mL: MIC50 (Clostridium bolteae) | MIC50 [1]
64 µg/mL: MIC90 (Prevotella bivia) | MIC90 (Prevotella corporis) | MIC90 (Prevotella disiens) | MIC90 (Prevotella intermedia) | MIC90 (Prevotella nigrescens) | MIC90 (Hoylesella loescheii) | MIC90 (Prevotella oris)
